According to US9896443B2, “Perforin inhibiting benzenesulfonamide compounds, preparation and uses thereof” (Peter MacCallum Cancer Institute, priority 2012, dated 2018):
Counter-ions that a name gives are not always drawn.

Columns and labels:
[1] = test system: KHYG-1 NK cell-mediated lysis of K562 cells; experiment: Inhibition of KHYG-1 NK cell-mediated lysis of K562 cells (51Cr release); type: cell-based; settings: K562 target cells, Effector:Target 2:1, 4 hours at 37° C.
Method: Inhibition of KHYG-1 NK Cell-Mediated Lysis of K562 Cells.
Test compounds were added to KHYG-1 cells at various concentrations up to 20 µM and incubated at RT for 20 minutes. 1×10^6 K562 target cells were labelled with 75 μCi ^51Cr in 200 μl RPMI for 90 mins at 37° C., cells were washed as described above and resuspended in 5 ml RPMI+0.1% BSA. 50 μl of ^51Cr labelled K562 leukemia target cells were added to each well of the KHYG-1 plate (Effector:Target 2:1) and incubated at 37° C. for 4 hours. ^51Cr release was assayed using a Skatron Harvesting Press and radioactivity estimated on a Wallac Wizard 1470 Automatic Gamma counter (Turku, Finland). The percentage of specific cytotoxicity was calculated by the formula: […]

recombinant perforin = recombinant perforin (UniProt P10820); type: cell-based; settings: lysis of Jurkat T lymphoma cells by recombinant perforin, 0.1% BSA, 30 min pre-incubation, 4 hours at 37° C.; read-out: Jurkat IC50
Chain of recombinant perforin (P10820 whole entry): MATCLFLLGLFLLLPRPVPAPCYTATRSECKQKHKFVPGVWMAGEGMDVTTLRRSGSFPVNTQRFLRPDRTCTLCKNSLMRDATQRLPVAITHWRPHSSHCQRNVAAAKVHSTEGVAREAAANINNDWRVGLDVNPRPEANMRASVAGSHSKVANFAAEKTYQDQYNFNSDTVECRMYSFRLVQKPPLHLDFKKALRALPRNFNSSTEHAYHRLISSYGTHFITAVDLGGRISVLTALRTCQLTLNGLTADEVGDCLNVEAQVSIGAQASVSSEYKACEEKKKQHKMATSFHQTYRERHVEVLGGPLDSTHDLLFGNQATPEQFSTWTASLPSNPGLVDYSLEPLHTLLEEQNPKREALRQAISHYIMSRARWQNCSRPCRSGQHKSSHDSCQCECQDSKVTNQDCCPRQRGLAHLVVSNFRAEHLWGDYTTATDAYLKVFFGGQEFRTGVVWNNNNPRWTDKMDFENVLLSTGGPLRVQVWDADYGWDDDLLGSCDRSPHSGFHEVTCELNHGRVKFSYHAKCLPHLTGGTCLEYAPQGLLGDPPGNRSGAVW
Method: Inhibition of perforin-mediated lysis of Jurkat cells.
The ability of the compounds to inhibit the lysis of nucleated (Jurkat T lymphoma) cells in the presence of 0.1% BSA, as measured by release of ^51Cr was measured. Jurkat target cells were labelled by incubation in medium with 100 μCi ^51Cr for one hour. The cells were then washed three times to remove unincorporated isotope and re-suspended at 1×10^5 cells per mL in RPMI buffer supplemented with 0.1% BSA. […] Each data point was performed in triplicate and an IC50 was calculated from the range of concentrations described to above.

Compound	inhibition at 20 µM ([1]; 4 h) [%]	IC50 (recombinant perforin) [µM]	inhibition at 20 µM [1] [%]	Inhibition of KHYG-1 at 20 μM (%) [1] [%]
CN1Cc2cc(-c3ccc(-c4cncc(NS(=O)(=O)c5ccc(F)cc5F)c4)s3)ccc2C1=O [Compound 1, 2,4-Difluoro-N-(5-(5-(2-methyl-1-oxoisoindolin-5-yl)thiophen-2-yl)pyridin-3-yl)benzenesulfonamide]	46			
CN1Cc2cc(-c3ccc(-c4cncc(NS(=O)(=O)c5ccc(F)cc5)c4)s3)ccc2C1=O [Compound 6, 4-Fluoro-N-(5-(5-(2-methyl-1-oxoisoindolin-5-yl)thiophen-2-yl)pyridin-3-yl)benzene-sulfonamide]	10	9.65		
CN1Cc2cc(-c3ccc(-c4cncc(NS(=O)(=O)c5c(F)cc(F)cc5F)c4)s3)ccc2C1=O [Compound 8, 2,4,6-Trifluoro-N-(5-(5-(2-methyl-1-oxoisoindolin-5-yl)thiophen-2-yl)pyridin-3-yl)benzene-sulfonamide]	52	1.76		
CN1Cc2cc(-c3ccc(-c4cncc(NS(=O)(=O)c5ccc(Cl)cc5)c4)s3)ccc2C1=O [Compound 11, 4-Chloro-N-(5-(5-(2-methyl-1-oxoisoindolin-5-yl)thiophen-2-yl)pyridin-3-yl)benzenesulfonamide]		5.39	17	
CN1Cc2cc(-c3ccc(-c4cncc(NS(=O)(=O)c5ccc(Cl)cc5)c4)s3)ccc2C1=O [Compound 11.Na, 4-Chloro-N-(5-(5-(2-methyl-1-oxoisoindolin-5-yl)thiophen-2-yl)pyridin-3-yl)benzenesulfonamide]	14	8.28		
CN1Cc2cc(-c3ccc(-c4cncc(NS(=O)(=O)c5cccc(Cl)c5F)c4)s3)ccc2C1=O [Compound 14, 3-Chloro-2-fluoro-N-(5-(5-(2-methyl-1-oxoisoindolin-5-yl)thiophen-2-yl)pyridin-3-yl)benzenesulfonamide]		13		
COc1ccc(S(=O)(=O)Nc2cncc(-c3ccc(-c4ccc5c(c4)CN(C)C5=O)s3)c2)cc1OC [Compound 21.Na, 3,4-Dimethoxy-N-(5-(5-(2-methyl-1-oxoisoindolin-5-yl)thiophen-2-yl)pyridin-3-yl)benzenesulfonamide, sodium salt]	31			
CN1Cc2cc(-c3ccc(-c4cncc(NS(=O)(=O)c5ccccc5[N+](=O)[O-])c4)s3)ccc2C1=O [Compound 28, N-(5-(5-(2-Methyl-1-oxoisoindolin-5-yl)thiophen-2-yl)pyridin-3-yl)-2-nitrobenzenesulfonamide]	71	6.65		
CN1Cc2cc(-c3ccc(-c4cncc(NS(=O)(=O)c5ccc([N+](=O)[O-])cc5)c4)s3)ccc2C1=O [Compound 29, N-(5-(5-(2-Methyl-1-oxoisoindolin-5-yl)thiophen-2-yl)pyridin-3-yl)-4-nitrobenzenesulfonamide]	48	2.74		
CN1Cc2cc(-c3ccc(-c4cncc(NS(=O)(=O)c5ccc([N+](=O)[O-])cc5)c4)s3)ccc2C1=O [Compound 29.Na, N-(5-(5-(2-Methyl-1-oxoisoindolin-5-yl)thiophen-2-yl)pyridin-3-yl)-4-nitrobenzenesulfonamide]		3.34		49
CN1Cc2cc(-c3ccc(-c4cncc(NS(=O)(=O)c5ccc(C#N)cc5)c4)s3)ccc2C1=O [Compound 30, 4-Cyano-N-(5-(5-(2-methyl-1-oxoisoindolin-5-yl)thiophen-2-yl)pyridin-3-yl)benzenesulfonamide]	49	5.17		
CN1Cc2cc(-c3ccc(-c4cnc(F)c(NS(=O)(=O)c5ccc(F)cc5F)c4)s3)ccc2C1=O [Compound 39, 2,4-Difluoro-N-(2-fluoro-5-(5-(2-methyl-1-oxoisoindolin-5-yl)thiophen-2-yl)pyridin-3-yl)benzenesulphonamide]	56	1.99		
CN1Cc2cc(-c3ccc(-c4cnc(F)c(NS(=O)(=O)c5ccc(F)cc5F)c4)s3)ccc2C1=O [Compound 39.Na, 2,4-Difluoro-N-(2-fluoro-5-(5-(2-methyl-1-oxoisoindolin-5-yl)thiophen-2-yl)pyridin-3-yl)benzenesulphonamide]		0.75		48
CN1Cc2cc(-c3ccc(-c4cnc(Cl)c(NS(=O)(=O)c5ccc(F)cc5F)c4)s3)ccc2C1=O [Compound 40, 2,4-Difluoro-N-(2-chloro-5-(5-(2-methyl-1-oxoisoindolin-5-yl)thiophen-2-yl)pyridin-3-yl)benzenesulphonamide]	85	1.03		
O=C1NCc2cc(-c3ccc(-c4cncc(NS(=O)(=O)c5ccc(F)cc5F)c4)s3)ccc21 [Compound 48, 2,4-Difluoro-N-(5-(5-(1-oxoisoindolin-5-yl)thiophen-2-yl)pyridin-3-yl)benzenesulfonamide]	35			
CN1Cc2cc(-c3ccc(-c4cncc(NC(=S)NC(=O)c5ccc(F)cc5)c4)s3)ccc2C1=O [Compound 68, 4-Fluoro-N-((5-(5-(2-methyl-1-oxoisoindolin-5-yl)thiophen-2-yl)pyridin-3-yl)carbamothioyl)benzamide]		15.9		
O=C1c2ccc(-c3ccc(-c4cncc(NS(=O)(=O)c5ccc(F)cc5F)c4)s3)cc2CN1CCN1CCOCC1 [Compound 69, 2,4-Difluoro-N-(5-(5-(2-(2-morpholinoethyl)-1-oxoisoindolin-5-yl)thiophen-2-yl)pyridin-3-yl)benzenesulfonamide]		17		
O=S(=O)(Nc1cncc(-c2ccc(-c3ccc4[nH]ccc4c3)s2)c1)c1ccc(F)cc1F [Compound 71, N-(5-(5-(1H-indol-5-yl)thiophen-2-yl)pyridin-3-yl)-2,4-difluorobenzenesulfonamide]	87.7 ± 9			
CN1Cc2cc(-c3ccc(-c4cncc(NS(=O)(=O)c5ccccc5C#N)c4)s3)ccc2C1=O [Compound 79.Na, 2-Cyano-N-(5-(5-(2-methyl-1-oxoisoindolin-5-yl)thiophen-2-yl)pyridin-3-yl)benzenesulfonamides]		9.17		
Cc1cc(C)n(-c2ccc(S(=O)(=O)Nc3cncc(-c4ccc(-c5ccc6c(c5)CN(C)C6=O)s4)c3)cc2)n1 [Compound 80, 4-(3,5-Dimethyl-1H-pyrazol-1-yl)-N-(5-(5-(2-methyl-1-oxoisoindolin-5-yl)thiophen-2-yl)pyridin-3-yl)benzenesulfonamides]		19.1		
CN1Cc2cc(-c3ccc(-c4cncc(NS(=O)(=O)c5ccc(F)cc5F)c4)nc3)ccc2C1=O [Compound 83, 2,4-Difluoro-N-(5-(2-methyl-1-oxoisoindolin-5-yl)-[2,3′-bipyridin]-5′-yl)benzenesulphonamide]		8.17		
CCOC(=O)c1ccc(S(=O)(=O)Nc2cncc(-c3ccc(-c4ccc5c(c4)CN(C)C5=O)s3)c2)cc1 [Compound 85, Ethyl 4-(N-(5-(5-(2-methyl-1-oxoisoindolin-5-yl)thiophen-2-yl)pyridin-3-yl)sulfamoyl)benzoate]		19.4		
CN1Cc2cc(-c3ccc(-c4cnc(F)c(NS(=O)(=O)c5ccccn5)c4)s3)ccc2C1=O [Compound 90, N-(2-Fluoro-5-(5-(2-methyl-1-oxoisoindolin-5-yl)thiophen-2-yl)pyridin-3-yl)pyridine-2-sulfonamide]		4.1		
COC(=O)c1cccc(S(=O)(=O)Nc2cncc(-c3ccc(-c4ccc5c(c4)CN(C)C5=O)s3)c2)c1 [Compound 91, Methyl 3-(N-(5-(5-(2-methyl-1-oxoisoindolin-5-yl)thiophen-2-yl)pyridin-3-yl)sulfamoyl)benzoate]		7.77		
